Laboratory results: patent US12498382B2, “Biomarkers for vitiligo” (INCYTE CORPORATION, priority 2019, dated 2025)

System: HaCaT cells
Assay: Normalized expression of target genes in HaCaT cells stimulated with TNFα and IFNγ in presence/absence of JAK inhibitors (QuantiGene Plex)
Type: cell-based, human
Procedure: Transformed human keratinocyte (HaCaT) cells were purchased from AddexBio (Catalog #T0020001) and cultured as outlined in Example 5. […] After 48 hours, cell culture media was removed from 24 well plates and replaced with 250 uL of media containing serial diluted drug, then incubated for 15 minutes at 37° C./5% CO2. After drug incubation, 250 uL of combinatory stimulation containing Recombinant Human Interferon gamma (R&D Systems, Catalog #285-IF-100) and Recombinant Human Tumor Necrosis Factor alpha (R&D Systems, Catalog #210-TA-020) was added to plates. The final concentration of Recombinant Human Interferon gamma and Recombinant Human Tumor Necrosis Factor alpha was 25 ng/mL of each cytokine. Cytokine stimulation added to wells containing drug brought the final concentrations for each drug treatment to 25 nM, 50 nM, 100 nM, and 200 nM. Treated plates were mixed by gentle agitation for 30 seconds then incubated for 24 hours at 37° C./5% CO2. At the end of the 24 hour incubation media was immediately removed from each plate.
RNA was isolated from HaCaT cells using the QuantiGene Plex Assay reagents and protocols (Affymetrix, Catalog #QGP-232-M18042302) according to the manufacturer's guidelines. Cells were washed with 1×DPBS then lysed by incubation with provided QuantiGene lysis buffer for 30 minutes at 50-55° C. Cell lysates were incubated for 18-24 hours at 55° C. with capture beads and probe set designed to specifically hybridize to mRNA from targets of interest. Genes included housekeeping genes (e.g., HPRT1 and GAPDH) used for the normalization of the results. After the 18-24 hour incubation signal was amplified utilizing branched DNA methodologies, according to the manufacturer's procedures (Affymetrix, Catalog #QGP-232-M18042302). After hybridization and wash steps assay plate was read on the Luminex 200 and data were expressed as Net Median Fluorescence Intensity. Data was then normalized to the Net Median Fluorescence Intensity of the housekeeping gene HPRT1 (Table 14).

[1] = TNFα+IFNγ 25 ng/mL, Drug Conc 100 nM
[2] = TNFα+IFNγ 25 ng/mL, Drug Conc 200 nM
[3] = no stimulation, Drug Conc 200 nM

N#CCC1(n2cc(-c3ncnc4[nH]ccc34)cn2)CN(C2CCN(C(=O)c3ccnc(C(F)(F)F)c3F)CC2)C1 [Cpd B, {1-{1-[3-fluoro-2-(trifluoromethyl)isonicotinoyl]piperidin-4-yl}-3[4-(7H-pyrrolo[2,3-d]pyrimidin-4-yl)-1H-pyrazol-1-yl]azetidin-3-yl}acetonitrile]
JAK3 normalized expression MFI [1]: 0.92 ± 0.13
LOR normalized expression MFI [1]: 31.4 ± 10.44
S100A7 normalized expression MFI [1]: 3.83 ± 1.02
S100A12 normalized expression MFI [1]: 1 ± 0.17
SERPINB3 normalized expression MFI [1]: 2.2 ± 0.35
SERPINB4 normalized expression MFI [1]: 2.87 ± 0.48
STAT1 normalized expression MFI [1]: 2783.68 ± 179.19
STAT3 normalized expression MFI [1]: 1373.34 ± 55.51
STAT4 normalized expression MFI [1]: 6.21 ± 0.48
STAT5A normalized expression MFI [1]: 20.87 ± 2.1
STAT5B normalized expression MFI [1]: 40.75 ± 2.41
STAT6 normalized expression MFI [1]: 987.64 ± 15.75
TNF normalized expression MFI [1]: 29.5 ± 2.82
VEGFA normalized expression MFI [1]: 524.82 ± 13.65
AREG normalized expression MFI [2]: 730.41 ± 24.58
CCL17 normalized expression MFI [2]: 3.13 ± 0.48
CCL18 normalized expression MFI [2]: 1.68 ± 0.32
FLG normalized expression MFI [2]: 87.37 ± 10.99
IL6 normalized expression MFI [2]: 93.03 ± 3.25
IL8 normalized expression MFI [2]: 377.69 ± 20.45
IL17A normalized expression MFI [2]: 0.91 ± 0.17
IL22 normalized expression MFI [2]: 1.01 ± 0.19
IL23A normalized expression MFI [2]: 59.53 ± 3.83
IL31 normalized expression MFI [2]: 1.14 ± 0.32
ILIA normalized expression MFI [2]: 1126.94 ± 26.22
IYK2 normalized expression MFI [2]: 277.52 ± 8.67
JAK1 normalized expression MFI [2]: 195.97 ± 10.45
JAK2 normalized expression MFI [2]: 89.16 ± 3.43
JAK3 normalized expression MFI [2]: 0.79 ± 0.15
LOR normalized expression MFI [2]: 38.46 ± 14.1
S100A7 normalized expression MFI [2]: 5.73 ± 1.59
S100A12 normalized expression MFI [2]: 1.14 ± 0.16
SERPINB3 normalized expression MFI [2]: 2.21 ± 0.44
SERPINB4 normalized expression MFI [2]: 3.19 ± 0.7
STAT1 normalized expression MFI [2]: 2850.04 ± 177.51
STAT3 normalized expression MFI [2]: 1400.77 ± 58.44
STAT4 normalized expression MFI [2]: 6.27 ± 0.56
STAT5A normalized expression MFI [2]: 19.2 ± 1.94
STAT5B normalized expression MFI [2]: 41 ± 3.46
STAT6 normalized expression MFI [2]: 985.17 ± 29.31
TNF normalized expression MFI [2]: 28.31 ± 2.97
VEGFA normalized expression MFI [2]: 516.11 ± 14.7
AREG normalized expression MFI [3]: 260.61 ± 14.67
CCL17 normalized expression MFI [3]: 1.56 ± 0.38
CCL18 normalized expression MFI [3]: 1.49 ± 0.37
FLG normalized expression MFI [3]: 256.93 ± 36.45
IL6 normalized expression MFI [3]: 4.7 ± 0.32
IL8 normalized expression MFI [3]: 61.71 ± 4.86
IL17A normalized expression MFI [3]: 0.46 ± 0.1
IL22 normalized expression MFI [3]: 0.61 ± 0.13
IL23A normalized expression MFI [3]: 11.41 ± 1.43
IL31 normalized expression MFI [3]: 0.72 ± 0.18
ILIA normalized expression MFI [3]: 92.67 ± 5.54
IYK2 normalized expression MFI [3]: 217.28 ± 14.28
JAK1 normalized expression MFI [3]: 177.97 ± 14.91
JAK2 normalized expression MFI [3]: 25.21 ± 1.12
JAK3 normalized expression MFI [3]: 0.68 ± 0.17
LOR normalized expression MFI [3]: 23.78 ± 7.16
S100A7 normalized expression MFI [3]: 4.94 ± 1.59
S100A12 normalized expression MFI [3]: 0.8 ± 0.13
SERPINB3 normalized expression MFI [3]: 2.25 ± 0.49
SERPINB4 normalized expression MFI [3]: 3.39 ± 0.89
STAT1 normalized expression MFI [3]: 529.16 ± 21.86
STAT3 normalized expression MFI [3]: 732.19 ± 23.03
STAT4 normalized expression MFI [3]: 4.28 ± 0.61
STAT5A normalized expression MFI [3]: 1.75 ± 0.44
STAT5B normalized expression MFI [3]: 58.85 ± 6.21
STAT6 normalized expression MFI [3]: 740.11 ± 34.98
TNF normalized expression MFI [3]: 2.58 ± 0.57
VEGFA normalized expression MFI [3]: 211.13 ± 12.18
